The test system of data set [1] is Rattus norvegicus. Briefly: In vivo inhibition of PGE2 in albino rat plasma at 50 mg/kg, po administered 1 hr prior to carrageenan challenge measured after 4 hrs by EIA relative to control. It counts as functional.
The subject of data set [2] is Rattus norvegicus. Put plainly: Antiinflammatory activity in albino rat assessed as protection against carrageenan-induced paw edema at 25 mg/kg, po administered 1 hr prior to carrageenan challenge measured after 4 hrs relative to control. The format is functional. Background: In the carrageenan paw model, swelling and tenderness develop within hours.
Data set [3] can be described thus: Acute toxicity in rat. The settings on record: in vivo. It counts as organism-based.
The test system of data set [4] is Rattus norvegicus. Briefly: Antiinflammatory activity in albino rat assessed as protection against carrageenan-induced paw edema at 50 mg/kg, po administered 1 hr prior to carrageenan challenge measured after 4 hrs relative to control. The format is functional.
Data set [5] relates to Rattus norvegicus. Put plainly: In vivo inhibition of PGE2 in albino rat plasma at 25 mg/kg, po administered 1 hr prior to carrageenan challenge measured after 4 hrs by EIA relative to control. The format is functional.

This note sets out measurements from ChEMBL document CHEMBL2424639, “Synthesis and pharmacological activities of some novel 5-chloro-N-(4-(1,5-(disubstituted)-4,5-dihydro-1H-pyrazol-3-yl)phenyl)-2-methoxybenzamide derivatives” (Med Chem Res, 2013).

By inhibition in vivo is commonly meant how much of the control response was suppressed. Low values mean a weak effect, high ones a strong effect. As a reminder, the LD50 is the dose expected to kill half of the subjects tested. Higher therefore signals a less toxic substance. Consider `COc1ccc(Cl)cc1C(=O)Nc1ccc(C(=O)/C=C/c2ccccc2[N+](=O)[O-])cc1`, for which testing at 50 mg/kg in the data set on Rattus norvegicus [1] gave an inhibition in vivo of 80.4%. For the same compound, the Activity is 81.8% in the data set with Rattus norvegicus [2] and 85.85% in the data set with Rattus norvegicus [4]. This compound returned a median lethal dose (LD50) in data set [3] of 2400 mg/kg. This compound returned an inhibition in vivo at 25 mg/kg in the data set with Rattus norvegicus [5] of 69.1%.

In turn, `COc1ccc(C2CC(c3ccc(NC(=O)c4cc(Cl)ccc4OC)cc3)=NN2C(C)=O)cc1` (centres undefined) showed an inhibition in vivo at 50 mg/kg in the data set with Rattus norvegicus [1] of 88.4%. For the same compound, the Activity in the data set with Rattus norvegicus [2] amounted to 86%; in the data set on Rattus norvegicus [4], 90.2%. For the same compound, in the data set on Rattus norvegicus [5], 25 mg/kg produced 79.4% inhibition in vivo.

As to `COc1ccc(Cl)cc1C(=O)Nc1ccc(C2=NN(CN3CCOCC3)C(c3ccc([N+](=O)[O-])cc3)C2)cc1` (centres undefined), the inhibition in vivo at 50 mg/kg with Rattus norvegicus [1] was found to be 90.1%. The figures for the Activity with Rattus norvegicus [2] and in the data set with Rattus norvegicus [4] were 94.13% and 97.9%, respectively. The inhibition in vivo at 25 mg/kg with Rattus norvegicus [5] amounted to 80.1%.

Take `COc1ccc(C2CC(c3ccc(NC(=O)c4cc(Cl)ccc4OC)cc3)=NN2C)cc1` (centres undefined): in the data set on Rattus norvegicus [1], the inhibition in vivo at 50 mg/kg turned out to be 81.8%. Besides, the values for the Activity with Rattus norvegicus [2] and in the data set with Rattus norvegicus [4] were 88.1% and 93.15%, respectively. Also, the LD50 in data set [3] came to 2390 mg/kg. The compound also returned an inhibition in vivo at 25 mg/kg in the data set on Rattus norvegicus [5] of 69.6%.

`COc1ccc(Cl)cc1C(=O)Nc1ccc(C2=NN(C(C)=O)C(c3ccccc3[N+](=O)[O-])C2)cc1` (centres undefined) registered an inhibition in vivo at 50 mg/kg with Rattus norvegicus [1] of 87.2%. For the same compound, the results for the Activity in the data set with Rattus norvegicus [2] and with Rattus norvegicus [4] were 92.16% and 96.15%, respectively. Also, in the data set with Rattus norvegicus [5], testing at 25 mg/kg gave an inhibition in vivo of 77.2%.

`COc1ccc(C2CC(c3ccc(NC(=O)c4cc(Cl)ccc4OC)cc3)=NN2c2ccccc2)cc1` (centres undefined) returned an inhibition in vivo at 50 mg/kg in the data set with Rattus norvegicus [1] of 90.2%. Also, the Activity in the data set with Rattus norvegicus [2] came to 94.82%; in the data set on Rattus norvegicus [4], 98%. The same compound displayed an LD50 in data set [3] of 2390 mg/kg. For the same compound, the inhibition in vivo at 25 mg/kg in the data set with Rattus norvegicus [5] is 82.3%.

Regarding `COc1ccc(/C=C/C(=O)c2ccc(NC(=O)c3cc(Cl)ccc3OC)cc2)cc1`, in the data set on Rattus norvegicus [1], the inhibition in vivo at 50 mg/kg was 79.2%. Moreover, the Activity is on record as 79% with Rattus norvegicus [2] and 93.1% in the data set on Rattus norvegicus [4]. The LD50 in data set [3] amounted to 2230 mg/kg. In addition, in the data set with Rattus norvegicus [5], the inhibition in vivo at 25 mg/kg came out at 68.1%.

`COc1ccc(Cl)cc1C(=O)Nc1ccc(C2=NN(C)C(c3ccc([N+](=O)[O-])cc3)C2)cc1` (centres undefined): in the data set with Rattus norvegicus [1], testing at 50 mg/kg gave an inhibition in vivo of 83.2%. The Activity in the data set on Rattus norvegicus [2] came out at 93%; in the data set with Rattus norvegicus [4], 97.4%. In data set [3], this compound returned a median lethal dose (LD50) of 2540 mg/kg. In the data set with Rattus norvegicus [5], this compound came in with an inhibition in vivo at 25 mg/kg of 71.3%.

In the data set with Rattus norvegicus [1], `COc1ccc(Cl)cc1C(=O)Nc1ccc(C2=NN(C)C(c3ccccc3[N+](=O)[O-])C2)cc1` (centres undefined) gave an inhibition in vivo at 50 mg/kg of 91.2%. Further, the Activity in the data set with Rattus norvegicus [2] stood at 96.45%; in the data set on Rattus norvegicus [4] it was 99.5%. In data set [3], the LD50 turned out to be 2350 mg/kg. Besides, the inhibition in vivo at 25 mg/kg in the data set on Rattus norvegicus [5] was 83.8%.

In the data set on Rattus norvegicus [1], `COc1ccc(Cl)cc1C(=O)Nc1ccc(C2=NNC(c3ccccc3[N+](=O)[O-])C2)cc1` (centres undefined) had an inhibition in vivo at 50 mg/kg of 84.5%. In addition, the Activity with Rattus norvegicus [2] turned out to be 88.3%; in the data set on Rattus norvegicus [4] it was 90.89%. This compound also had an inhibition in vivo at 25 mg/kg in the data set with Rattus norvegicus [5] of 72.3%.

Compound `COc1ccc(Cl)cc1C(=O)Nc1ccc(C(=O)/C=C/c2ccc([N+](=O)[O-])cc2)cc1` displayed a median lethal dose (LD50) in data set [3] of 1830 mg/kg.

Consider `COc1ccc(C2CC(c3ccc(NC(=O)c4cc(Cl)ccc4OC)cc3)=NN2)cc1` (centres undefined), for which, in the data set with Rattus norvegicus [1], the inhibition in vivo at 50 mg/kg came to 83%. Moreover, the figures for the Activity in the data set with Rattus norvegicus [2] and in the data set on Rattus norvegicus [4] were 82.55% and 89%, respectively. This compound also gave an inhibition in vivo at 25 mg/kg in the data set on Rattus norvegicus [5] of 70.5%.

`COc1ccc(Cl)cc1C(=O)Nc1ccc(C2=NNC(c3ccc([N+](=O)[O-])cc3)C2)cc1` (centres undefined) had an inhibition in vivo at 50 mg/kg in the data set on Rattus norvegicus [1] of 86.3%. Further, the values for the Activity in the data set on Rattus norvegicus [2] and in the data set on Rattus norvegicus [4] were 91.25% and 95.3%, respectively. Moreover, the inhibition in vivo at 25 mg/kg in the data set on Rattus norvegicus [5] is 76.3%.

In turn, `COc1ccc(Cl)cc1C(=O)Nc1ccc(C2=NN(c3ccccc3)C(c3ccc([N+](=O)[O-])cc3)C2)cc1` (centres undefined) came in with an inhibition in vivo at 50 mg/kg in the data set on Rattus norvegicus [1] of 85.3%. Besides, the Activity in the data set with Rattus norvegicus [2] is reported as 90.85%; in the data set with Rattus norvegicus [4], 94.1%. The compound further yielded a median lethal dose (LD50) in data set [3] of 2380 mg/kg. The same compound returned an inhibition in vivo at 25 mg/kg with Rattus norvegicus [5] of 75.3%.

In the data set on Rattus norvegicus [1], `COc1ccc(Cl)cc1C(=O)Nc1ccc(C2=NN(c3ccccc3)C(c3ccccc3[N+](=O)[O-])C2)cc1` (centres undefined) had an inhibition in vivo at 50 mg/kg of 84.3%. Further, the Activity in the data set on Rattus norvegicus [2] was 80.18%; in the data set with Rattus norvegicus [4], 88.4%. Further, the LD50 in data set [3] worked out at 2390 mg/kg. In the data set with Rattus norvegicus [5], the inhibition in vivo at 25 mg/kg was found to be 73.3%.

On to `C[C@]12C=CC(=O)C=C1CC[C@@H]1[C@@H]2[C@@H](O)C[C@@]2(C)[C@H]1CC[C@]2(O)C(=O)CO` [PREDNISOLONE], for which, in the data set with Rattus norvegicus [1], 50 mg/kg produced 92.1% inhibition in vivo. Further, the Activity with Rattus norvegicus [2] is given as 80.4%; in the data set with Rattus norvegicus [4], 92.1%. Moreover, testing at 25 mg/kg in the data set with Rattus norvegicus [5] gave an inhibition in vivo of 78.1%.
